In US11014905B2, “2,6-disubstituted pyridine derivative” (Sumitomo Dainippon Pharma Co., Ltd., priority 2017, dated 2021):

Legend:
[1] = Test 3-1: metabolic stability test of human liver microsome; type: in vitro ADME; conditions: human liver microsome 0.1 mg/mL, test compound 0.1 μmol/L, 37° C., 30 minutes
Experimental: Test 3-1: Metabolic Stability Test of Human Liver Microsome
(§1) The stability of the present compounds for human liver microsome metabolism was evaluated as mentioned below. The used human liver microsome was obtained from Xenontech. Human liver microsome, NADPH, and each test compound were mixed in 25 mmol/L phosphate buffer solution (pH 7.4) to adjust each concentration as shown below, and the mixture was incubated at 37° C. for 30 minutes. • human liver microsome: 0.1 mg/mL • NAPDH: 3.2 mmol/L • test compound: 0.1 μmol/L
(§2) The residual ratio of the test compound in each sample after the incubation for 30 minutes was measured with a LC-MS, and the metabolic stability of human liver microsome was calculated about each test compound with the following formula. Metabolic stability of human liver microsome(mL/min/mg protein)=−LN(residual ratio)/“reaction time”/“concentration of human liver microsome”

[2] = Test 3-2: metabolic stability test of human liver microsome; type: in vitro ADME; conditions: human liver microsome 0.5 or 1.0 mg/mL, test compound 0.1 μmol/L, 37° C., 30 minutes
Experimental: Test 3-2: Metabolic Stability Test of Human Liver Microsome
as §1, with “In order to evaluate the metabolic stability of human liver microsomes more precisely, the stability” for “The stability”, “evaluated with a suitable concentration of human liver microsome,” for “evaluated”, “microsome: 0.5 or 1.0” for “microsome: 0.1”
as §2

Wistar male rat = assay: Test 9: microdialysis test (intracerebral monoamine release); type: in vivo; conditions: in the combination administration with sertraline or in single administration
Experimental: Test 9: Microdialysis Test
The effect of the present compound for the release amount of intracerebral monoamine was evaluated in a manner mentioned below.
8-Week-old Wistar male rat was fixed on a brain stereotaxic apparatus under anesthesia. The scalp was incised, the subcutaneous tissue was removed, the position of the bregma was measured, and the installation position of a guide cannula was calculated (the position of the orbitofrontal cortex which defined according to the brain stereotaxic coordinates of Paxinos & Watson (2.0 mm right, 4.2 mm anterior from bregma)). The skull was drilled with a dental drill at the installation position of the guide cannula, and an anchor screw was set about 1 cm posterior to the hole. The guide cannula was set and fixed with a dental cement, and then the scalp was sutured. The animal was released from the brain stereotaxic apparatus, and was moved back to the breeding cage. In the event of the test, the rat was put in an acrylic observable cage, and a dialysis probe was inserted along the guide cannula to connect to a free-moving tube. With an infusion pump, Ringer solution was perfused at 2 μL/min, and the dialysis solution was recovered at 20-minute intervals. […] The recovered dialysis solutions were analyzed with a HPLC-ECD system to determine the contents of norepinephrine (NE), dopamine (DA), and serotonin (5-HT).

human 5-HT1A receptor [3] = target: T1, human 5-HT1A receptor (Homo sapiens (Human), UniProt P08908); assay: Test 1: agonistic activity for human 5-HT1A receptor (aequorin luminescence, CHO-K1); type: cell-based; conditions: for EC50: CHO-K1 cell transiently expressing aequorin, Ga16 and receptor
T1 sequence (P08908 whole entry): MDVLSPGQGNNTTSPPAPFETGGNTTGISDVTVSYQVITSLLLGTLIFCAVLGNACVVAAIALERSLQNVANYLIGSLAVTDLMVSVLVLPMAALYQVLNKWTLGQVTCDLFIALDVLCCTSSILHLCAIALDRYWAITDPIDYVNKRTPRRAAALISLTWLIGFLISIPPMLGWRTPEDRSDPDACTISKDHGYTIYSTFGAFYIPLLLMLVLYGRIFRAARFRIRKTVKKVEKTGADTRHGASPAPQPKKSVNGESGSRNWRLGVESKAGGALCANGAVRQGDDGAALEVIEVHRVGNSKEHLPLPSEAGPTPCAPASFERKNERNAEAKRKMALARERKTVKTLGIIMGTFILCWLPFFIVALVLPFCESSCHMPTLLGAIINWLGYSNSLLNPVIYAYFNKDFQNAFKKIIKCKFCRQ
Experimental: (§3) Test 1: Evaluation of Agonistic Activity for Human 5-HT1A Receptor and Human D4 Receptor
(§4) Aequorin, Ga16 proteins, and each receptor were transiently expressed in CHO-K1 cell (Chinese hamster ovary), and seeded to 384-well plate. The plate was incubated in a CO2 incubator at 37° C. for 24 hours. Each example compound dissolved in DMSO was added thereto, and the change of luminescence amount was measured with Hamamatsu FDSS/μCELL System (Hamamatsu Photonics).

human D4 receptor [4] = target: T2, human D4 receptor (Homo sapiens (Human), UniProt P21917); assay: Test 1: agonistic activity for human D4 receptor (aequorin luminescence, CHO-K1); type: cell-based; conditions: for EC50: CHO-K1 cell transiently expressing aequorin, Ga16 and receptor
T2 sequence (P21917 whole entry): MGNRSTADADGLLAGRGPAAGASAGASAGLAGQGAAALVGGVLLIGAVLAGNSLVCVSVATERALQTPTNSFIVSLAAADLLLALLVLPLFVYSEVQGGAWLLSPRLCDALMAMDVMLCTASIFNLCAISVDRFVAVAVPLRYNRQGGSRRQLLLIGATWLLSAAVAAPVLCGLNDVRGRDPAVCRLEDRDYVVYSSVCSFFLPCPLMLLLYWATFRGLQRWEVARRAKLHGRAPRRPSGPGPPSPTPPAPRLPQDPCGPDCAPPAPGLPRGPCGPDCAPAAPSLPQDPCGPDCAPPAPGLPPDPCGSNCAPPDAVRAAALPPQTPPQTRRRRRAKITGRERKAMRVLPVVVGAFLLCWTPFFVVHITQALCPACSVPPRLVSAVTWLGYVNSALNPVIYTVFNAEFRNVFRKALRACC
Experimental: as §3, §4

human 5-HT1A receptor [5] = target: T1, human 5-HT1A receptor; assay: Test 2: binding activity to human 5-HT1A receptor ([3H] 8-OH-DPAT); conditions: CHO cell membrane fraction, read-out: 5-HT1A binding affinity (Ki value)
Experimental: (§5) Test 2: Evaluation of Binding Activity to Human 5-HT1A Receptor, Human D4 Receptor, and Human D2 Receptor
(§6) CHO cell membrane fraction in which human 5-HT1A receptor, human D4 receptor, and human D2 receptor were expressed was purchased from PerkinElmer Co., Ltd. In the evaluation test of binding, the test compound dissolved in DMSO, each receptor membrane preparation diluted with buffer solution, and [3H] […] The nonspecific binding to each receptor was evaluated by a competition binding experiment in the presence of 10 μmol/L 8-OH-DPAT, 10 μmol/L dopamine, or 10 μmol/L spiperone, respectively.

human D4 receptor [6] = target: T2, human D4 receptor; assay: Test 2: binding activity to human D4 receptor ([3H] dopamine); conditions: CHO cell membrane fraction, read-out: D4 binding affinity (Ki value)
Experimental: as §5, §6

human D2 receptor = human D2 receptor (Homo sapiens (Human), UniProt P14416); assay: Test 2: binding activity to human D2 receptor ([3H] spiperone); conditions: CHO cell membrane fraction, read-out: D2 binding affinity (Ki value)
Sequence of human D2 receptor (P14416 whole entry): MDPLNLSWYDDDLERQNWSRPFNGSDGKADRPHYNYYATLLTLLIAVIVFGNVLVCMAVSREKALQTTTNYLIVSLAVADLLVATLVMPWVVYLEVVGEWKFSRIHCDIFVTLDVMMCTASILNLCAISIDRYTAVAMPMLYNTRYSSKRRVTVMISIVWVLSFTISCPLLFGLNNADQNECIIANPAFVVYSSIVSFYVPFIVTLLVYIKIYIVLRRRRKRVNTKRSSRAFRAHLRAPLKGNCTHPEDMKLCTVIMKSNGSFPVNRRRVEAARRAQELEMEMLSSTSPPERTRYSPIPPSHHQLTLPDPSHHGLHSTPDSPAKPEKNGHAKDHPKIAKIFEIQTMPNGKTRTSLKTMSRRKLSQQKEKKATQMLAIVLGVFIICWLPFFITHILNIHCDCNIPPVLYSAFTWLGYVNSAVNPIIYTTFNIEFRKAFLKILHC
Experimental: as §5, §6

hERG channel = hERG channel (Homo sapiens (Human), UniProt Q12809); assay: Test 5-2: activity for inhibiting hERG channel (whole-cell patch clamp, Qube); type: cell-based; conditions: hERG-CHO cell, auto patch clamp, read-out: hERG inhibition IC50
Sequence of hERG channel (Q12809 whole entry): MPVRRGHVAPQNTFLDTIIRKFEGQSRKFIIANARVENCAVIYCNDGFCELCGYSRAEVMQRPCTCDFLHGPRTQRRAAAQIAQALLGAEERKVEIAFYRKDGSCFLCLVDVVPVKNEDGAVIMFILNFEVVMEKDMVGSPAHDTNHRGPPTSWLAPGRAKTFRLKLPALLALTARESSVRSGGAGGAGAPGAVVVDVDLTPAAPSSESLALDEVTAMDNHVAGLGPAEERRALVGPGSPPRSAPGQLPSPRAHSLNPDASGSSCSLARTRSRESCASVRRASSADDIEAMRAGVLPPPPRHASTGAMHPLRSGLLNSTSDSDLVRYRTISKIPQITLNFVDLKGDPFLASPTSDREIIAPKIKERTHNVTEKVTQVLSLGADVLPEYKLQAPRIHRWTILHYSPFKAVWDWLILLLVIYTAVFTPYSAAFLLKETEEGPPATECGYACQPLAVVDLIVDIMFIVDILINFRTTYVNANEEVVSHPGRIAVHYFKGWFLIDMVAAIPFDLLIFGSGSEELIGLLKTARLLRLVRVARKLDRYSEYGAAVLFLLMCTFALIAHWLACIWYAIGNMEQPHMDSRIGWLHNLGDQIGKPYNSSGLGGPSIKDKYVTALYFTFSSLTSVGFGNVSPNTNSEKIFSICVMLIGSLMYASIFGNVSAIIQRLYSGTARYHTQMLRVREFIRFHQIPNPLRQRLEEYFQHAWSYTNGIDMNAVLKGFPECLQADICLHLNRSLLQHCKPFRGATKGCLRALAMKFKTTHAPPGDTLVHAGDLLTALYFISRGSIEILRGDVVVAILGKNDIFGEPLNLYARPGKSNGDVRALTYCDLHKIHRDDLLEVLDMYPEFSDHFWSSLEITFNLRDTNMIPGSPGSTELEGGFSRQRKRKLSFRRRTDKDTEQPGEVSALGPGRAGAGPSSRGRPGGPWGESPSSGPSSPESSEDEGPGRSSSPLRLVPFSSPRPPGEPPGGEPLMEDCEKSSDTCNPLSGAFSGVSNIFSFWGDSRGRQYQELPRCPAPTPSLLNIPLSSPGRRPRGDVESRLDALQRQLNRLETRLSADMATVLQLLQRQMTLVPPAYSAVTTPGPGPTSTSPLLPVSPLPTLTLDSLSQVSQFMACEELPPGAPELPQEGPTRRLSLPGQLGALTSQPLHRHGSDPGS
Experimental: Test 5-2: Evaluation of Activity for Inhibiting hERG Channel
The activity of the present compound for inhibiting hERG channel was measured by whole-cell patch clamp method with auto patch clamp system, using CHO cell wherein hERG channel involved in human rapidly activating delayed rectifier potassium current (IKr) was forcibly expressed.
hERG-CHO cell purchased from ChanTest was incubated at 37° C. in a CO2 incubator, and the cell was exfoliated from the flask with trypsin to prepare a cell suspension, shortly before the hERG current measurement.
Extracellular fluid: 2 mmol/L CaCl2, 1 mmol/L MgCl2, 10 mmol/L HEPES, 4 mmol/L KCl, 145 mmol/L NaCl, 10 mmol/L glucose
Intracellular fluid: 10 mmol/L HEPES, 10 mmol/L EGTA, 20 mmol/L KCl, 130 mmol/L KF […]
The cell suspension, the extracellular fluid, the intracellular fluid, and the measurement plate were set in an auto patch clamp system, and the hERG current was measured by whole-cell patch clamp method. […] The test was carried out applying increscently 4 concentrations of each test compound, and the average of the peak tail currents that were obtained by the last 3 stimulations in each applied concentration was made to be the evaluated data. By using the current inhibition rate for the pre-applied current at each concentration of each test compound, IC50 value was calculated by Hill equation with the software.

[7] = CHO-K1, 100% = 10 μmol/L endogenous ligand
[8] = 100% = 10 μmol/L endogenous ligand

Metabolic stability of human liver microsome [1] [mL/min/mg protein] | Compound | also measured
0.073 | O=C(NCCN1CCC(c2cccc(C(F)(F)F)n2)CC1)C1CCC(F)(F)CC1 [Example 1, 4,4-Difluoro-N-(2-{4-[6-(trifluoromethyl)pyridin-2-yl]piperidin-1-yl}ethyl)cyclohexane-carboxamide] | Metabolic stability of human liver microsome [2]: 0.031 mL/min/mg protein
<0.01 | Cc1cccc(C2CCN(CCNC(=O)C3CC4CCC3O4)CC2)n1 (stereo not shown) [Example 3] | 
<0.01 | Cc1cccc(C2CCN(CCNC(=O)C3CCC(F)(F)CC3)CC2)n1 [Example 4] | 
0.017 | Cc1cccc(C2CCN(CCNC(=O)C3CCOCC3)CC2)n1 [Example 8, N-{2-[4-(6-Methylpyridin-2-yl)piperidin-1-yl]ethyl}-tetrahydro-2H-pyran-4-carboxamide] | Metabolic stability of human liver microsome [2]: 0.023 mL/min/mg protein
0.025 | CC(C)(C)C(=O)NCCN1CCC(c2cccc(C(F)(F)F)n2)CC1 [Example 9, 2,2-dimethyl-N-(2-{4-[6-(trifluoromethyl)pyridin-2-yl]piperidin-1-yl}ethyl)propanamide] | Metabolic stability of human liver microsome [2]: 0.016 mL/min/mg protein
0.015 | Cc1cccc(C2CCN(CCNC(=O)C(C)(C)C)CC2)n1 [Example 10] | 
 | O=C(NCCN1CCC(c2cccc(C(F)(F)F)n2)CC1)C1CCOCC1 [Example 11, N-(2-{4-[6-(Trifluoromethyl)pyridin-2-yl]piperidin-1-yl}ethyl)-tetrahydro-2H-pyran-4-carboxamide] | Metabolic stability of human liver microsome [2]: 0.0075 mL/min/mg protein; effect on serotonin content (Wistar male rat): did not decrease the serotonin content
<0.05 | Cc1cccc(C2CCN(CCNC(=O)C3CCCOC3)CC2)n1 (stereo not shown) [Example 15] | 
<0.05 | O=C(NCCN1CCC(c2cccc(C(F)(F)F)n2)CC1)[C@H]1C[C@@H]2CC[C@H]1O2 [Example 21] | 
<0.05 | O=C(NCCN1CCC(c2cccc(C(F)(F)F)n2)CC1)C1CCOC1 (stereo not shown) [Example 25] | 5-HT1A agonistic activity Emax (human 5-HT1A receptor [3]; [8]): 46%; EC50 (human 5-HT1A receptor [3]): 0.067 µM; D4 agonistic activity Emax (human D4 receptor [4]; [8]): 49%; EC50 (human D4 receptor [4]): 0.03 µM; Ki (human 5-HT1A receptor [5]): 0.02 µM; Ki (human D2 receptor): 3.33 µM; IC50 (hERG channel): > 10 µM
<0.05 | O=C(NCCN1CCC(c2cccc(OC(F)(F)F)n2)CC1)C1CCOCC1 [Example 28] | 
<0.05 | COc1cccc(C2CCN(CCNC(=O)C3CCOCC3)CC2)n1 [Example 33] | 
<0.05 | O=C(NCCN1CCC(c2cccc(C(F)F)n2)CC1)C1CCOCC1 [Example 34] | 
<0.05 | CN(C)c1cccc(C2CCN(CCNC(=O)C3CCOCC3)CC2)n1 [Example 38, N-(2-{4-[6-(Dimethylamino)pyridin-2-yl]piperidin-1-yl}ethyl)-tetrahydro-2H-pyran-4-carboxamide] | 

Compound | Metabolic stability of human liver microsome [1] [mL/min/mg protein] | also measured
O=C(NCCN1CCC(c2cccc(C(F)(F)F)n2)CC1)C1CCCOC1 (stereo not shown) [Example 2] | 0.069 | 
COCC(C)(C)C(=O)NCCN1CCC(c2cccc(C)n2)CC1 [Example 5] | <0.01 | 
COCC(C)(C)C(=O)NCCN1CCC(c2cccc(C(F)(F)F)n2)CC1 [Example 6] | <0.01 | 
Cc1cccc(C2=CCN(CCNC(=O)[C@H]3C[C@@H]4CC[C@H]3O4)CC2)n1 [Example 13] | <0.05 | 
Cc1cccc(C2=CCN(CCNC(=O)C3CCC(F)(F)CC3)CC2)n1 [Example 14] | 0.084 | 
O=C(NCCN1CC=C(c2cccc(C(F)(F)F)n2)CC1)C1CCCOC1 (stereo not shown) [Example 16, N-{2-[6-(Trifluoromethyl)-3′,6′-dihydro[2,4′-bipyridin]-1′(2′H)-yl]ethyl}-tetrahydro-2H-pyran-3-carboxamide] | <0.05 | 
COCC(C)(C)C(=O)NCCN1CC=C(c2cccc(C(F)(F)F)n2)CC1 [Example 18] | <0.05 | 
Cc1cccc(C2CCN(CCNC(=O)C3CCCCO3)CC2)n1 (stereo not shown) [Example 20] | <0.05 | Emax (human 5-HT1A receptor [3]; [7]): 40%; EC50 (human 5-HT1A receptor [3]): 0.057 µM; Emax (human D4 receptor [4]; [7]): 60%; EC50 (human D4 receptor [4]): 0.015 µM; Ki (human 5-HT1A receptor [5]): 0.0068 µM; Ki (human D4 receptor [6]): 0.092 µM; Ki (human D2 receptor): > 10 µM; IC50 (hERG channel): > 10 µM
Cc1cccc(C2=CCN(CCNC(=O)C3CCOCC3)CC2)n1 [Example 29, N-[2-(6-Methyl-3′,6′-dihydro[2,4′-bipyridin]-1′(2′H)-yl)ethyl]-tetrahydro-2H-pyran-4-carboxamide] | <0.05 | 
CC(C)(C)C(=O)NCCN1CC=C(c2cccc(C(F)(F)F)n2)CC1 [Example 31, 2,2-Dimethyl-N-{2-[6-(trifluoromethyl)-3′,6′-dihydro[2,4′-bipyridin]-1′(2′H)-yl]ethyl}propanamide] | <0.05 | 
